{"source": "patent US20100137346A1", "about": "“DESFE[…] ACTINIDE DEC[…]” (priority 2006, published 2010)", "key": {"[1]": {"assay": "Chelator-induced uranium excretion (urine + bile, 24 h) in bile duct-cannulated rat model", "format": "in vivo", "description": "Desferrithiocin Analogue Induced Excretion of Uranium. In order to compare results with previous chelator-induced iron excretion data, the uranium clearance studies were carried out in a bile duct-cannulated rat model. The animals were given uranyl acetate dihydrate SC at a dose of 5 mg/kg (the actual dose of uranium is 2.8 mg/kg). Bile and urine samples were collected for 24 hours after dosing. Kidneys were removed from selected animals and tissue uranium concentration measured. At least three animals were utilized in each experimental group. Data from two separate control studies (uranyl acetate/ no chelator) have now been combined for a total of 14 control animals. All uranium concentrations were measured using ICPMS. The data are reported as the total quantity of uranium excreted [urine +bile]; the mode of excretion [urine/bile] is also given. In addition the percentage of the administered dose of uranium cleared and chelator-induced uranium excretion vs the controls is also given. Four positive controls were evaluated: DTPA (13, Table 1) given as its trisodium calcium salt, DFO (14), N,N′-bis(2hydroxybenzyl)ethylenediamine-N,N′-diacetic acid, monosodium salt (NaHBED, 15) and the hydroxypyridone CP94 (16) shown to bind uranium [Pashalidis, et al., Effective complex formation in the interaction of 1,2-dimethyl-3-hydroxypyrid-4-one (Deferiprone or L1) with uranium(VI), Journal of Radioanalytical and Nuclear Chemistry 1999; 242:181-184.] The total metal cleared after 24 h in control rats was 10% of the administered dose. When DTPA, 13, was given IP or PO at 300 μmol/kg immediately after uranium, the excretion was 17% and 8% of the administered dose respectively (p>0.05). However, when the drug was given IP at a dose of 600 μmol/kg immediately post-metal, the uranium excretion was significant, 20% (p<0.005). This is consistent with previously published data using a similar animal model.[Domingo, et al., Comparative effects of the chelators sodium 4,5-dihydroxybenzene-1,3-disulfonate (Tiron) and diethylenetriaminepentaacetic acid (DTPA) on acute uranium nephrotoxicity in rats, Toxicology 1997; 118:49-59] DFO (14) and CP94 (16) given IP immediately post uranyl acetate were ineffective.\nDesferrithiocin Analogue-Induced Excretion of Uranium. In order to compare results with previous chelator-induced iron excretion data, the uranium clearance studies were carried out in a bile duct-cannulated rat model. The animals were given uranyl acetate dihydrate SC at a dose of 5 mg/kg (the actual dose of uranium is 2.8 mg/kg). Bile and urine samples were collected for 24 hours after dosing. Kidneys were removed from selected animals and tissue uranium concentration measured. At least three animals were utilized in each experimental group. Data from two separate control studies (uranyl acetate/ no chelator) are combined for a total of 14 control animals. All uranium concentrations were measured using ICPMS. The data are reported as the total quantity of uranium excreted [urine +bile]; the mode of excretion [urine/bile] is also given. In addition the percentage of the administered dose of uranium cleared and chelator-induced uranium excretion vs the controls is also given. Four positive controls were evaluated: DTPA (1, Table 1) given as its trisodium calcium salt, DFO (2), N,N -bis(2-hydroxybenzyl)ethylenediamine-N,N-diacetic acid, monosodium salt (NaHBED, 3) and the hydroxypyridone CP94 (4) shown to bind uranium. The total metal cleared after 24 h in control rats was 10% of the administered dose. When DTPA, 1, was given IP or PO at 300 μmol/kg immediately after uranium, the excretion was 17% and 8% of the administered dose respectively (p>0.05). However, when the drug was given IP at a dose of 600 μmol/kg immediately post metal, the uranium excretion was significant, 20% (p<0.005). This is consistent with previously published data using a similar animal model.^2 DFO (2) and CP94 (4) given IP immediately post uranyl acetate were ineffective."}, "[2]": {"settings": "cited from earlier work; for relative percentages of the iron excreted in the stool and urine / Iron Clearing Efficiency (%): orally to C. apella primates, 150 μmol/kg, data from ref 19 / ref 17"}}, "data": [{"compound": "O=C(O)CN(CCN(CC(=O)O)CC(=O)O)CCN(CC(=O)O)CC(=O)O", "note": "[drawing 16]", "values": [{"measurement": "% of Administered Dose Cleared", "setting": "[1]; 300 μmol/kg IP Immediate", "value": 17, "unit": "%"}, {"measurement": "Chelator-Induced U Excretion/Control", "setting": "[1]; 300 μmol/kg IP Immediate", "value": 1.7}, {"measurement": "Uranium Excretion", "setting": "[1]; 300 μmol/kg IP Immediate", "value": "469 ± 271", "unit": "µg/kg"}, {"measurement": "Uranium Excretion [urine/bite]", "setting": "[1]; 300 μmol/kg IP Immediate", "value": "99/1"}, {"measurement": "% of Administered Dose Cleared", "setting": "[1]; 300 μmol/kg PO Immediate", "value": 8, "unit": "%"}, {"measurement": "Chelator-Induced U Excretion/Control", "setting": "[1]; 300 μmol/kg PO Immediate", "value": 0.8}, {"measurement": "Uranium Excretion", "setting": "[1]; 300 μmol/kg PO Immediate", "value": "235 ± 205", "unit": "µg/kg"}, {"measurement": "Uranium Excretion [urine/bite]", "setting": "[1]; 300 μmol/kg PO Immediate", "value": "100/0"}, {"measurement": "% of Administered Dose Cleared", "setting": "[1]; 600 μmol/kg IP Immediate", "value": 20, "unit": "%"}, {"measurement": "Chelator-Induced U Excretion/Control", "setting": "[1]; 600 μmol/kg IP Immediate", "value": 2.0}, {"measurement": "Uranium Excretion", "setting": "[1]; 600 μmol/kg IP Immediate", "value": "548 ± 147", "unit": "µg/kg"}, {"measurement": "Uranium Excretion [urine/bite]", "setting": "[1]; 600 μmol/kg IP Immediate", "value": "100/0"}]}, {"compound": "CC1(C)SC(c2ccccc2O)=N[C@@H]1C(=O)O", "note": "[drawing 20]", "values": [{"measurement": "% of Administered Dose Cleared", "setting": "[1]; 300 μmol/kg IP 0.5 h Post", "value": 7, "unit": "%"}, {"measurement": "Chelator-Induced U Excretion/Control", "setting": "[1]; 300 μmol/kg IP 0.5 h Post", "value": 0.7}, {"measurement": "Uranium Excretion", "setting": "[1]; 300 μmol/kg IP 0.5 h Post", "value": "200 ± 47", "unit": "µg/kg"}, {"measurement": "Uranium Excretion [urine/bite]", "setting": "[1]; 300 μmol/kg IP 0.5 h Post", "value": "37/63"}, {"measurement": "% of Administered Dose Cleared", "setting": "[1]; 300 μmol/kg IP Immediate", "value": 26, "unit": "%"}, {"measurement": "Chelator-Induced U Excretion/Control", "setting": "[1]; 300 μmol/kg IP Immediate", "value": 2.6}, {"measurement": "Uranium Excretion", "setting": "[1]; 300 μmol/kg IP Immediate", "value": "743 ± 189", "unit": "µg/kg"}, {"measurement": "Uranium Excretion [urine/bite]", "setting": "[1]; 300 μmol/kg IP Immediate", "value": "8/92"}]}, {"compound": "COCCOCCOCCOc1ccc(C2=N[C@@](C)(C(=O)O)CS2)c(O)c1", "note": "[drawing 21]", "values": [{"measurement": "Uranium Excretion", "setting": "[1]; 300 μmol/kg IP Immediate", "value": "626 ± 123", "unit": "µg/kg"}, {"measurement": "Uranium Excretion [urine/bite]", "setting": "[1]; 300 μmol/kg IP Immediate", "value": "35/65"}, {"measurement": "response vs control in vivo at 300 µmol/kg", "setting": "[1]; Rattus norvegicus, ip, 24 h, 300 μmol/kg IP Immediate, read-out: Chelator-Induced U Excretion/Control", "value": 220, "unit": "%"}]}, {"compound": "O=C(O)[C@H]1CSC(c2ccc(O)cc2O)=N1", "note": "[drawing 22]", "values": [{"measurement": "relative percentages of the iron excreted in the stool and urine", "setting": "[2]", "value": "70/30"}, {"measurement": "Iron Clearing Efficiency (%)", "setting": "[2]", "value": "4.2 ± 1.4", "unit": "%"}]}, {"compound": "C[C@]1(C(=O)O)CSC(c2ccc(O)cc2O)=N1", "note": "[drawing 23]", "values": [{"measurement": "relative percentages of the iron excreted in the stool and urine", "setting": "[2]", "value": "86/14"}, {"measurement": "Iron Clearing Efficiency (%)", "setting": "[2]", "value": "13.4 ± 5", "unit": "%"}]}, {"compound": "COc1ccc(C2=N[C@@H](C(=O)O)CS2)c(O)c1", "note": "[drawing 24]", "values": [{"measurement": "relative percentages of the iron excreted in the stool and urine", "setting": "[2]", "value": "81/19"}, {"measurement": "Iron Clearing Efficiency (%)", "setting": "[2]", "value": "16.2 ± 3.2", "unit": "%"}]}, {"compound": "COc1ccc(C2=N[C@@](C)(C(=O)O)CS2)c(O)c1", "note": "[drawing 25]", "values": [{"measurement": "relative percentages of the iron excreted in the stool and urine", "setting": "[2]", "value": "91/9"}, {"measurement": "Iron Clearing Efficiency (%)", "setting": "[2]", "value": "24.4 ± 10.8", "unit": "%"}]}, {"compound": "desferrioxamine [DFO, reference compound]", "values": [{"measurement": "uranium clearance, in words", "setting": "[1]; given IP immediately post uranyl acetate, doses per Table 1", "value": "ineffective"}, {"measurement": "ICE", "setting": "[2]; subcutaneous administration, iron-loaded Cebus apella primate", "value": "5.0±2.6", "unit": "%"}]}]}
